EC50 data for three compounds are collected here from ChEMBL document CHEMBL4033764, “Seeking (and Finding) Biased Ligands of the Kappa Opioid Receptor” (ACS Med Chem Lett, 2017).

Molecules are shown by their SMILES.

For the assay, the target named is Kappa-type opioid receptor (Homo sapiens, UniProt P41145). The assay is described as follows: Agonist activity at human kappa opioid receptor expressed in CHO cells assessed as beta-arrestin2 recruitment by enzyme fragment complementation method. In kind it is cell-based.
Chain of Kappa-type opioid receptor (P41145 whole entry, the tested form may be a part): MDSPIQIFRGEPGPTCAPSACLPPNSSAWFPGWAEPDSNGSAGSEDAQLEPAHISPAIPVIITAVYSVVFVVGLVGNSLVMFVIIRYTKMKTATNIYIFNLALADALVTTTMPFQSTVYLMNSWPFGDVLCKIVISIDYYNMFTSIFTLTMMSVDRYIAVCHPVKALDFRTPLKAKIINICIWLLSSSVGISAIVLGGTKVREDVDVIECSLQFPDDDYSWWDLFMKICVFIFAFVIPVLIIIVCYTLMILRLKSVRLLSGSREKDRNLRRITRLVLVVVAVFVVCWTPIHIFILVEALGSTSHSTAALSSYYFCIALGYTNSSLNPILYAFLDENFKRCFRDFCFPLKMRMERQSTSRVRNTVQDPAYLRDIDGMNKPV
Regarding `O=C(Nc1ccc(Cl)c(C(F)(F)F)c1)[C@H]1CC=C[C@H]2CCN(Cc3ccccc3)C(=O)[C@@H]12`, the 50% effective concentration (EC50) was more than 10 µM. `CN(CCc1ccc(Cl)c(Cl)c1)[C@@H]1CCCC[C@H]1N1CCCC1`: the concentration giving a half-maximal response (EC50) was determined as 0.0566 µM.

Regarding `Cc1cc(CSc2nnc(-c3ccccn3)n2Cc2ccco2)ccc1C(F)(F)F`, the half-maximal effective concentration (EC50) turned out to be 4.13 µM.
